In patent US20250215030A1, “STAT MODULATORS AND USES THEREOF” (Recludix Pharma, Inc., priority 2022, published 2025):

Columns and labels:
pSTAT6 (pY641-STAT6) = biological target: T1, pSTAT6 (pY641-STAT6) (Homo sapiens, UniProt P42226); assay: MSD-pSTAT-PBMC Assay (pSTAT6, IL-4 stimulated); assay type: cell-based; details: compound 3 hrs, then 1 ng/mL IL-4 for 10 min
T1 construct: host or cells: cryopreserved PBMC
T1 sequence (P42226 1-847): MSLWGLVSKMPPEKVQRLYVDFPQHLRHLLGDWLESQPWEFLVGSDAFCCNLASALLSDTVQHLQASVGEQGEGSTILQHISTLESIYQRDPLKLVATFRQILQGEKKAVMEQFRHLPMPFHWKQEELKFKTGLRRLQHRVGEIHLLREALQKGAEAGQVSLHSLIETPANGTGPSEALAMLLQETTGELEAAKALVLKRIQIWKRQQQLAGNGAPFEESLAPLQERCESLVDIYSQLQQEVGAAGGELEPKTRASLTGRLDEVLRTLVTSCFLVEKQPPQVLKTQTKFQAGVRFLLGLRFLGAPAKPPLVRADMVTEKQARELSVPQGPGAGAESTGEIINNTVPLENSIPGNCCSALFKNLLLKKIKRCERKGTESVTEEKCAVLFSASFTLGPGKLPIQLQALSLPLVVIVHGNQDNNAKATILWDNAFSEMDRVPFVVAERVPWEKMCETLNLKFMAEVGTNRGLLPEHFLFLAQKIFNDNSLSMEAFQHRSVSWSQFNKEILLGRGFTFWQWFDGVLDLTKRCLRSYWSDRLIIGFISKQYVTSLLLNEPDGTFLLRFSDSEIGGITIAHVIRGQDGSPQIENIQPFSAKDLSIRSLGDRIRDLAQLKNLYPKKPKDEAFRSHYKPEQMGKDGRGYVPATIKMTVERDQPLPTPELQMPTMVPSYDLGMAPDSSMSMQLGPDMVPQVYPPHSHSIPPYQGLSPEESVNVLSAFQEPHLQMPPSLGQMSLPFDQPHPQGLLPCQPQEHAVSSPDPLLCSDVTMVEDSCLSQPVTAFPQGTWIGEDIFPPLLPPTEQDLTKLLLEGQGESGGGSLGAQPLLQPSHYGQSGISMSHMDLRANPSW
From the text: Cryopreserved Peripheral Blood Mononuclear Cells (PBMC) are from AllCells. Recombinant Human IL-4 and IL-6 are from Peprotech. Mouse monoclonal anti-STAT3 antibody, rabbit monoclonal anti-pY705-STAT3 antibody, rabbit monoclonal Anti-pY641-STAT6 antibody, and lysis buffer are from Cell Signaling Technology (CST). Mouse monoclonal anti-STAT6 antibody is from BioLegend. Assay plates, blocker, and anti-rabbit secondary antibody are from Meso Scale Discovery (MSD).
Cryopreserved PBMCs were thawed out and allowed to recover overnight in IMDM+10% heat-inactivated FBS prior to plating 50,000 (STAT3) or 25,000 (STAT6) cells per well in 96-well U-bottom tissue culture plates. Cells were treated with compound for 3 hrs, then stimulated with 10 ng/mL IL-6 (STAT3) or 1 ng/mL IL-4 (STAT6) for 10 min. Cells were then spun down and washed with ice-cold PBS prior to lysing the cell pellet with 1× lysis buffer (CST) with 1× HALT protease and phosphatase inhibitor cocktail (Thermo). Lysates were transferred to and incubated overnight at 4° C. with shaking in QuickPlex 96-well high bind assay plates (MSD) pre-coated overnight with 30 μL per well of 0.6 μg/mL mouse monoclonal anti-STAT3 antibody (STAT3) or 2 μg/mL mouse monoclonal anti-STAT6 antibody (STAT6) in 1×PBS, and pre-blocked for 1 hour with 3% Blocker-A (MSD). Captured protein in the assay plates were then washed and probed with 25 μL per well of 0.25 μg/ml rabbit monoclonal anti-pY705-STAT3 antibody (STAT3) or 0.18 μg/ml rabbit monoclonal Anti-pY641-STAT6 antibody (STAT6) in 1% Blocker-A for 1 hour at room temperature with shaking, then washed and probed with 25 ul per well of 1 ug/mi Sulfo-TAG Labeled Goat Anti-Rabbit Antibody (MSD) in 1% Blocker-A for 1 hour at room temperature with shaking. Assay plates were then washed and 150 μL of 1× Read Buffer-T (MSD) was added to each well prior to reading on an SQ120 MSD Plate Reader. Assay signal from each sample was subtracted by the signal from unstimulated control wells and normalized to DMSO control wells. IC50 values were calculated using Graph Pad Prism Dose-Response Nonlinear Regression with variable slope. For both pSTAT3 and pSTAT6 A=≤100 nM; B=>100-1000 nM; C=>1000-3000 nM; and D=>3 μM.

pSTAT3 (pY705-STAT3) = biological target: T2, pSTAT3 (pY705-STAT3) (Homo sapiens, UniProt P40763); assay: MSD-pSTAT-PBMC Assay (pSTAT3, IL-6 stimulated); assay type: cell-based; details: PBMC, compound 3 hrs, then 10 ng/mL IL-6 for 10 min; MSD pY705-STAT3; read-out: pSTAT3
T2 construct: host or cells: cryopreserved PBMC
T2 sequence (P40763 whole entry): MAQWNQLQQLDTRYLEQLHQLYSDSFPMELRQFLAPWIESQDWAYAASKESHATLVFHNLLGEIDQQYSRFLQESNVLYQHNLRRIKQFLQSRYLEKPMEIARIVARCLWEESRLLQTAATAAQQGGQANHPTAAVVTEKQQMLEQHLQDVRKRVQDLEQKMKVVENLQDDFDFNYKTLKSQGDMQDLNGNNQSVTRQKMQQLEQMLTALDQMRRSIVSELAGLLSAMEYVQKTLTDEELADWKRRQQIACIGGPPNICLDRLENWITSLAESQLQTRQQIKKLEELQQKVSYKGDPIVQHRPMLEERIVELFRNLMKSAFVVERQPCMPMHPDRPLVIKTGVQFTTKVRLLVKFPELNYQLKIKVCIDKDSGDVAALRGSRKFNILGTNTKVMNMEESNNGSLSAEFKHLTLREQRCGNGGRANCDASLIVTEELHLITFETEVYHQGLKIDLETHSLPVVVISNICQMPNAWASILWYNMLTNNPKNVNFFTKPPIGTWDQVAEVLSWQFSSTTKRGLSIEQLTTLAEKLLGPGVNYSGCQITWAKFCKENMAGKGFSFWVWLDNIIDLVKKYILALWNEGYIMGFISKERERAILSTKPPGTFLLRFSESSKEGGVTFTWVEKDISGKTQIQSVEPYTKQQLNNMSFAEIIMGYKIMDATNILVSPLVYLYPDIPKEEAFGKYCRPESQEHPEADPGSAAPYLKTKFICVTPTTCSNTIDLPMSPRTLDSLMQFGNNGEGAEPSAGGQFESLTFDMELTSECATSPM
Outline: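 Human PBMCs (50,000 cells/well for STAT3, 25,000 for STAT6) treated with compound 3 h, then stimulated 10 min with 10 ng/mL IL-6 or 1 ng/mL IL-4. Lysate pSTAT3 (pY705) or pSTAT6 (pY641) measured by MSD sandwich electrochemiluminescence. Signal minus unstimulated, normalized to DMSO; IC50 by variable-slope nonlinear regression.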

| SMILES | IC50 (pSTAT6 (pY641-STAT6)) | IC50 (pSTAT3 (pY705-STAT3)) |
| --- | --- | --- |
| CC(C)OC(=O)OCOP(=O)(OCOC(=O)OC(C)C)[C@@H](F)c1ccc2sc(C(=O)N[C@H]3C[C@H]4C[C@H]4C[C@H]4CC[C@@H](C(=O)N5CC(c6cccnc6)C5)N4C3=O)cc2c1 [Compound 152, ((((R)-fluoro(2-(((3S,6S,7aR, 8aS,9aR)-5-oxo-3-(3-(pyridin-3-yl)azetidine-1-carbonyl)decahydro-1H-cyclopropa[d]pyrrolo[1,2-a]azocin-6-yl)carbamoyl)benzo[b]thiophen-5-yl)methyl)phosphoryl)bis(oxy)) bis(methylene) diisopropyl bis(carbonate)] | 0.1 to 1 µM | < 0.1 µM |
| CC(C)(CO)C(=O)SCCOP(=O)(Cc1ccc2sc(C(=O)N[C@H]3C[C@@H]4C[C@@H]4C[C@H]4CC[C@@H](C(=O)N5CC(C(=O)N6CCOCC6)C5)N4C3=O)cc2c1)OCCSC(=O)C(C)(C)CO [Compound 133, S,S′-(((((2-(((3S,6S,7aS, 8aR,9aR)-3-(3-(morpholine-4-carbonyl)azetidine-1-carbonyl)-5-oxodecahydro-1H-cyclopropa[d]pyrrolo[1,2-a]azocin-6-yl)carbamoyl)benzo[b]thiophen-5-yl)methyl)phosphoryl)bis(oxy))bis(ethane-2,1-diyl)) bis(3-hydroxy-2,2-dimethyl-propane-thioate] | > 3 µM | > 3 µM |
| CC(C)(C)C(=O)SCCOP(=O)(Cc1ccc2sc(C(=O)N[C@H]3C[C@@H]4C[C@@H]4C[C@H]4CC[C@@H](C(=O)N5CC(n6ccnc6)C5)N4C3=O)cc2c1)OCCSC(=O)C(C)(C)C [Compound 151, S,S′-(((((2-(((3S,6S,7aS, 8aR,9aR)-3-(3-(1H-imidazol-1-yl)azetidine-1-carbonyl)-5-oxodecahydro-1H-cyclopropa [d]pyrrolo[1,2-a]azocin-6-yl)carbamoyl)benzo[b]thiophen-5-yl)methyl)phosphoryl)bis(oxy))bis(ethane-2,1-diyl)) bis(2,2-dimethyl-propanethioate)] | > 3 µM | 0.1 to 1 µM |
| CC(C)(CO)C(=O)SCCOP(=O)(OCCSC(=O)C(C)(C)CO)C(F)(F)c1ccc2sc(C(=O)N[C@H]3C[C@@H]4C[C@@H]4C[C@H]4CC[C@@H](C(=O)N5CC(n6ccnc6)C5)N4C3=O)cc2c1 [Compound 137, S,S′-(((((2-(((3S,6S,7aS, 8aR,9aR)-3-(3-(1H-imidazol-1-yl)azetidine-1-carbonyl)-5-oxodecahydro-1H-cyclopropa[d]pyrrolo[1,2-a]azocin-6-yl)carbamoyl)benzo[b]thiophen-5-yl)difluoro-methyl)phosphoryl)bis (oxy))bis(ethane-2,1-diyl))bis(3-hydroxy-2,2-dimethylpro-panethioate)] | > 3 µM | 1 to 3 µM |
| CCCC(=O)SCCOP(=O)(OCCSC(=O)CCC)C(F)(F)c1ccc2sc(C(=O)N[C@H]3C[C@@H]4C[C@@H]4C[C@H]4CC[C@@H](C(=O)N5CC(n6ccnc6)C5)N4C3=O)cc2c1 [Compound 188, S,S′-(((((2-(((3S,6S,7aS, 8aR,9aR)-3-(3-(1H-imidazol-1-yl)azetidine-1-carbonyl)-5-oxodecahydro-1H-cyclopropa[d]pyrrolo[1,2-a]azocin-6-yl)carbamoyl)benzo[b]thiophen-5-yl)difluoromethyl)phosphoryl)bis(oxy))bis(ethane-2,1-diyl)) dibutanethioate] | 0.1 to 1 µM | < 0.1 µM |
| CC(C)(C)C(=O)OCOP(=O)(OCOC(=O)C(C)(C)C)C(F)(F)c1ccc2sc(C(=O)N[C@H]3C[C@H]4C[C@H]4C[C@H]4CC[C@@H](C(=O)N5CC(c6cccnc6)C5)N4C3=O)cc2c1 [Compound 187, (((difluoro(2-(((3S,6S,7aR, 8aS,9aR)-5-oxo-3-(3-(pyridin-3-yl)azetidine-1-carbonyl)decahydro-1H-cyclopropa[d]pyrrolo[1,2-a]azocin-6-yl)carbamoyl)benzo[b]thiophen-5-yl)methyl)phosphoryl)bis(oxy)) bis(methylene) bis(2,2-dimethyl-propanoate)] | 0.1 to 1 µM | < 0.1 µM |

Next, values leading:

| IC50 (pSTAT6 (pY641-STAT6)) | IC50 (pSTAT3 (pY705-STAT3)) | SMILES |
| --- | --- | --- |
| > 3 µM | < 0.1 µM | CC(C)(C)C(=O)OCOP(=O)(OCOC(=O)C(C)(C)C)C(F)(F)c1ccc2sc(C(=O)N[C@H]3C[C@H]4C[C@H]4C[C@H]4CC[C@@H](C(=O)N5CC(n6ccnc6)C5)N4C3=O)cc2c1 [Compound 214, ((((2-(((3S,6S,7aR, 8aS,9aR)-3-(3-(1H-imidazol-1-yl)azetidine-1-carbonyl)-5-oxodecahydro-1H-cyclopropa[d]pyrrolo[1,2-a]azocin-6-yl)carbamoyl)benzo[b]thiophen-5-yl)difluoromethyl)phosphoryl)bis(oxy)) bis(methylene) bis(2,2-dimethyl-propanoate)] |
| 0.1 to 1 µM | < 0.1 µM | CC(C)(C)C(=O)OCOP(=O)(OCOC(=O)C(C)(C)C)C(F)(F)c1ccc2sc(C(=O)N[C@H]3C[C@H]4C[C@H]4C[C@H]4CC[C@@H](C(=O)N5CC(c6ccccn6)C5)N4C3=O)cc2c1 [Compound 209, (((difluoro(2-(((3S,6S,7aR, 8aS,9aR)-5-oxo-3-(3-(pyridin-2-yl)azetidine-1-carbonyl)decahydro-1H-cyclopropa[d]pyrrolo[1,2-a]azocin-6-yl)carbamoyl)benzo[b]thiophen-5-yl)methyl)phosphoryl)bis(oxy)) bis(methylene) bis(2,2-dimethyl-propanoate)] |
| 0.1 to 1 µM | < 0.1 µM | CC(C)(C)C(=O)OCOP(=O)(OCOC(=O)C(C)(C)C)C(F)(F)c1ccc2sc(C(=O)N[C@H]3C[C@@H]4C[C@@H]4C[C@H]4CC[C@@H](C(=O)N5CC(C6CCOCC6)C5)N4C3=O)cc2c1 [Compound 205, (((difluoro(2-(((3S,6S,7aS, 8aR,9aR)-5-oxo-3-(3-(tetrahydro-2H-pyran-4-yl)azetidine-1-carbonyl)decahydro-1H-cyclopropa[d]pyrrolo[1,2-a]azocin-6-yl)carbamoyl)benzo[b]thiophen-5-yl)methyl)phosphoryl)bis(oxy)) bis(methylene) bis(2,2-dimethyl-propanoate)] |
| 1 to 3 µM | < 0.1 µM | CC(C)CC(=O)SCCOP(=O)(OCCSC(=O)CC(C)C)C(F)(F)c1ccc2sc(C(=O)N[C@H]3C[C@H]4C[C@H]4C[C@H]4CC[C@@H](C(=O)N5CC(c6ncccn6)C5)N4C3=O)cc2c1 [Compound 225, S,S′-((((difluoro(2-(((3S,6S,7aR, 8aS,9aR)-5-oxo-3-(3-(pyrimidin-2-yl)azetidine-1-carbonyl)decahydro-1H-cyclopropa[d]pyrrolo[1,2-a]azocin-6-yl)carbamoyl)benzo[b]thiophen-5-yl)methyl)phosphoryl)bis(oxy))bis(ethane-2,1-diyl)) bis(3-methylbutane thioate)] |
